Test results as given in publication PMC6572376, “N1-Propargylguanosine Modified mRNA Cap Analogs: Synthesis, Reactivity, and Applications to the Study of Cap-Binding Proteins” (Molecules, 2019).

Columns and labels:
murine eIF4E = murine eIF4E (Mus musculus, UniProt P63073); assay: Pyrene fluorescence intensity competition binding assay for eIF4E
From the text: The prime role of the mRNA cap is to participate in initiation of translation through binding with eIF4E. Therefore, we investigated how the substitution at the N1 position influences the interaction between the cap analogs and eIF4E. To this end, we performed binding competition experiments with a Py-labeled m^7GTP analog as previously described. Thence, we determined IC50 values and calculated binding constants values (KD) for the cap analog-eIF4E complexes (Table 1, Figure 2). […] Additionally, the differences identified among studied compounds derived from triphosphate chain modifications were in agreement with previously published results.
A previously described pyrene fluorescence intensity binding method was used to determine the dissociation constants of the nonfluorescent ligands binding to the eIF4E protein in a competitive binding experiment. The experiments were performed in 96-well, black, non-binding assay plates with point fluorescence measurements (λexc = 345 nm; λem = 378 nm). Each well contained a buffer (50 mM Hepes/KOH pH = 7.2 containing 100 mM KCl and 0.5 mM EDTA), 10 nM of pyrene-labeled 7-methylguanosine pentaphosphate probe, ligand 1–5 or m^7Gp3G (half-log dilutions of Clig from 100 μM to 0.003 μM), and 75 nM of eIF4E protein. The reagents and added protein were pre-incubated for 15 min at 30 °C and stirred at 300 rpm. Measurements were performed in three different temperatures: At 20, 30, and 37 °C. A previously derived Equation (1) was used to calculate the inhibition (dissociation) constant KI of a competitive ligand according to the dependence of the recorded fluorescence intensity on the inhibitor concentration. (1) KI=IC50−[Pt]+[PL]50(KD/[L]50+1)/[L]50/KD+[P]0/KD+1 where IC50 is the inhibitor concentration required to replace 50% of the fluorescent probe from the protein binding site, [Pt] is the total protein concentration, [PL]50 is the protein–probe complex concentration at 50% inhibition, [L]50 is the free probe concentration at 50% inhibition, and [P]0 is the free protein concentration without inhibition.
In order to determine IC50 value, we used Origin® 2017 (OriginLab Corp., Northampton, MA, USA) software to fit the curve described by the derived Equation (2) to the measured fluorescence intensity values for various inhibitor concentrations. (2) F=F0Fmax−F0/1+10^(log(IC50)−log(Clig.))p where Clig. is the concentration of non-fluorescent ligand.
Figure 2 Dose–response curves for compounds 1–5 and m^7Gp3G plotted from a competition binding assay for meIF4E [16]. eIF4E (75 nM) and a pyrene-labeled fluorescent probe (10 nM) were incubated at 30 °C with the indicated concentrations of the investigated compounds (1–5 or m^7Gp3G as a reference).

[1] = target: T1, human decapping scavenger enzyme (hDcpS) (Homo sapiens, UniProt Q96C86); assay: in vitro; conditions: pH 7.6
T1 sequence (Q96C86 1-337): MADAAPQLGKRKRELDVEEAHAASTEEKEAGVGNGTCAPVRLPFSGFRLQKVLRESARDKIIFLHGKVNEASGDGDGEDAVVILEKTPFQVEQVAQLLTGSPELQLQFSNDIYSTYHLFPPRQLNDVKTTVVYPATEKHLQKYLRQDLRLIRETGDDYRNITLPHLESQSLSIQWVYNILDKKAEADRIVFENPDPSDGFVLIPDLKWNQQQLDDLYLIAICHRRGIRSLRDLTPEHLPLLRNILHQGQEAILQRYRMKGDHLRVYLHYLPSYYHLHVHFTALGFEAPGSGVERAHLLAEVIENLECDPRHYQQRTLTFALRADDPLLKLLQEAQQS
Protocol: (§2) Susceptibility of the new cap analogs to hydrolysis by human decapping scavenger enzyme (hDcpS) was investigated to assess the influence of N1 substitution on cap analogs recognition by DcpS. Caps 1–5 or m^7Gp3G (30 µM each) were incubated with hDcpS (30 nM) at 30 °C. Then, reaction samples were thermally deactivated and analyzed by RP-HPLC.
(§3) Enzymatic reactions with human DcpS were carried out in 50 mM Tris/HCl, 200 mM KCl, 0.5 mM EDTA, pH = 7.6 buffer at 30 °C for 30 nM hDcpS and 30 µM of a cap analog studied. As a control, m^7Gp3G was used. Cap analogs concentration was determined spectrophotometrically (absorption coefficient used in calculations is equal to 22,600 mL/mmol/cm in 0.1 M phosphate buffer pH = 7.0). For 1 and m^7Gp3G, 3 independent experiments were performed. Aliquots were terminated by heat inactivation for 3 min at 95 °C. Samples were analyzed with RP-HPLC using method E.
(§4) Data are average of triplicate experiments ± SD.

[2] = target: T1, human decapping scavenger enzyme (hDcpS); assay: Susceptibility to hDcpS hydrolysis monitored by RP-HPLC; conditions: 30 µM cap analog, 30 nM hDcpS, 30 °C
Protocol: as §2, §3, §4

murine eIF4E (meIF4E) = murine eIF4E (meIF4E) (Mus musculus, UniProt P63073); assay: Microscale thermophoresis direct binding to meIF4E; conditions: MST, 25 nM probe, 25 °C, 1:1 binding model, triplicate
Protocol: To this end, fluorescent probes (25 nM) were mixed with increasing concentrations of meIF4E and microscale thermophoresis was measured for each sample (Figure S5). Baseline corrected normalized fluorescences (ΔFn) determined from the MST traces were plotted as a function of protein concentration. KD values could then be calculated from the resulting binding curves (Figure 5). […] These findings align with those determined for the parent compounds 1, 2, and 3 (Table 1).
Probes 6, 11, and 12 were dissolved in MST buffer (50 mM HEPES/KOH, 100 mM KCl, 0.5 mM EDTA, pH = 7.2, 0.2% Tween 20) to obtain a 50 nM stock solution. Murine eIF4E (meIF4E) was dissolved in MST buffer in a 16 point, 1:1 dilution series in a 10.0 µM to 0.30 nM concentration range. Equal volumes (10 µL) of meIF4E and probe were combined to obtain the following assay concentrations: 25 nM probe and 5.0 µM to 0.15 nM meIF4E for the assay.
(§1) For both assays, samples were loaded into standard Monolith™ NT.115 Series Capillares (NanoTemper Technologies, Cambridge, MA, USA). MST measurements were performed on Monolith NT.115 instrument (NanoTemper Technologies, Cambridge, MA, USA) at 25 °C. Measurements parameters were set as follows: 40% LED Blue power, Medium MST power. Data were obtained for three independently pipetted measurements and analyzed in PALMIST v. 1.4.4 [36] using a 1:1 binding model to calculate KD, using the signal from an MST-on time of 20 s (for eIF4E assay: Cold region start, −3 s; hot region start, 0.5 s; for DcpS assay: Cold region start, −3 s; hot region start 19 s), confidence intervals were calculated with error surface projection (ESP) method. Plots presented were generated using GUSSI v. 1.4.2 [37].
Figure 5 Direct binding microscale thermophoresis (MST) experiments with eIF4E and DcpS. (a) MST binding curves for probes 6, 11, 12, and meIF4E. Probe 6, 11, or 12 (50 nM) was mixed with a half-log dilution series of an meIF4E solution (10 µM–0.30 nM). (b) MST binding curves for probes 11 and 12 and DcpS. […] Data were analyzed in Palmist v. […]

human DcpS (hDcpS) = target: T2, human DcpS (hDcpS) (Homo sapiens, UniProt Q96C86); assay: Microscale thermophoresis direct binding to hDcpS; conditions: for Kd: MST, 25 nM probe, 25 °C, 1:1 binding model, triplicate
T2 construct: made in house
T2 sequence (Q96C86 1-337): T1 sequence (Q96C86 1-337)
Protocol: With these promising results in mind, we decided to use the same approach for studying DcpS enzyme. For this purpose, cleavage-resistant probes 11 and 12 were used. Both probes were high-affinity ligands for DcpS. […] This is in agreement with previously reported data on the influence of triphosphate chain modifications on cap-DcpS interaction.
Probes 11 and 12 were dissolved in MST buffer (50 mM HEPES/KOH, 100 mM KCl, 0.5 mM EDTA, pH = 7.2, 0.2% Tween 20) to obtain a 50 nM stock solution. In study of a probe 11, human DcpS (hDcpS) was dissolved in MST buffer in a 16 point 1:1 dilution series in a 2.0 µM to 0.061 nM concentration range. Equal volumes (10 µL) of hDcpS and the probe were mixed together to obtain the following assay concentrations: 25 nM probe and 1.0 µM to 0.030 nM hDcpS. In study of a probe 12, hDcpS was dissolved in MST buffer in a 16 point 2:1 dilution series in a 700 nM to 1.60 nM concentration range. Equal volumes (10 µL) of hDcpS and the probe were mixed together to obtain the following assay concentrations: 25 nM probe and 350 nM to 0.80 nM hDcpS.
as §1
Figure 5 Direct binding microscale thermophoresis (MST) experiments with eIF4E and DcpS. (a) MST binding curves for probes 6, 11, 12, and meIF4E. […] Data were analyzed in Palmist v. […]

[3] = 30 °C, 75 nM eIF4E, 10 nM pyrene-labeled probe, triplicate
[4] = 30 °C, calculated from IC50 values

Chain of murine eIF4E (P63073 whole entry): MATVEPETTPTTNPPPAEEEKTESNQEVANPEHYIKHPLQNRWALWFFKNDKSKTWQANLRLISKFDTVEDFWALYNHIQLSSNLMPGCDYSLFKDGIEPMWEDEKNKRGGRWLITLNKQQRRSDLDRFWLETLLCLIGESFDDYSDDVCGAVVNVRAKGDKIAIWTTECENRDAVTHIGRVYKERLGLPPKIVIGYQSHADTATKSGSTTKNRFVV
Chain of murine eIF4E (meIF4E) (P63073 whole entry): as above

| Compound | IC50 (murine eIF4E; 20 °C) [µM] | Kd (murine eIF4E; 20 °C, calculated from IC50) [nM] | IC50 (murine eIF4E; [3]) [µM] | Kd (murine eIF4E; [4]) [nM] | IC50 (murine eIF4E; 37 °C) [µM] | Kd (murine eIF4E; 37 °C, calculated from IC50) [nM] | half-life at 30 µM [1] [min] | Susceptibility to hydrolysis by hDcpS ([2]; RP-HPLC) | Kd (murine eIF4E (meIF4E)) [nM] | Kd (human DcpS (hDcpS)) [nM] | Fold greater affinity for DcpS than probe 11 (human DcpS (hDcpS); MST KD ratio) [fold] | Half-life [2] [min] |
| --- | --- | --- | --- | --- | --- | --- | --- | --- | --- | --- | --- | --- |
| C#CCn1c(N)nc2c(ncn2C2OC(COP(=O)(O)OP(=O)([O-])OP(=O)(O)OCC3OC(n4c[n+](C)c5c(O)nc(N)nc54)C(O)C3O)C(O)C2O)c1=O (stereo not drawn) [Compound 1, P1-(N1-Propargylguanosin-5′-yl) P3-(N7-methylguanosin-5′-yl) triphosphate] | 2.92 ± 0.19 | 268 ± 40 | 3.57 ± 0.25 | 305 ± 45 | 3.68 ± 0.7 | 371 ± 82 | 15.8 | efficiently cleaved by DcpS but more slowly than m^7Gp3G |  |  |  |  |
| C#CCn1c(N)nc2c(ncn2C2OC(COP(=O)([O-])OP(=O)(O)CP(=O)(O)OCC3OC(n4c[n+](C)c5c(O)nc(N)nc54)C(O)C3O)C(O)C2O)c1=O (stereo not drawn) [Compound 2, P1-(N7-Methylguanosin-5′-yl) P3-(N1-propargylguanosin-5′-yl) 1,2-methylenetriphosphate] | 6.57 ± 0.49 | 610 ± 94 | 6.37 ± 0.73 | 548 ± 95 | 8.2 ± 0.79 | 836 ± 121 |  |  |  |  |  |  |
| C#CCn1c(N)nc2c(ncn2C2OC(COP(=O)([O-])OP(=O)(O)NP(=O)(O)OCC3OC(n4c[n+](C)c5c(O)nc(N)nc54)C(O)C3O)C(O)C2O)c1=O (stereo not drawn) [Compound 3, P1-(N7-Methylguanosin-5′-yl) P3-(N1-propargylguanosin-5′-yl) 1,2-imidotriphosphate] | 3.06 ± 0.16 | 281 ± 41 | 3.48 ± 0.22 | 297 ± 43 | 3.75 ± 0.89 | 379 ± 100 |  |  |  |  |  |  |
| C#CCn1c(N)nc2c(ncn2C2OC(COP(=O)(O)CP(=O)(O)OP(=O)([O-])OCC3OC(n4c[n+](C)c5c(O)nc(N)nc54)C(O)C3O)C(O)C2O)c1=O (stereo not drawn) [Compound 4, P1-(N7-Methylguanosin-5′-yl) P3-(N1-propargylguanosin-5′-yl) 2,3-methylenetriphosphate] | 5.51 ± 0.33 | 511 ± 75 | 6.04 ± 0.46 | 520 ± 78 | 8.1 ± 0.61 | 826 ± 109 |  |  |  |  |  |  |
| C#CCn1c(N)nc2c(ncn2C2OC(COP(=O)(O)NP(=O)(O)OP(=O)([O-])OCC3OC(n4c[n+](C)c5c(O)nc(N)nc54)C(O)C3O)C(O)C2O)c1=O (stereo not drawn) [Compound 5, P1-(N7-Methylguanosin-5′-yl) P3-(N1-propargylguanosin-5′-yl) 2,3-imidotriphosphate] | 1.85 ± 0.15 | 168 ± 26 | 2.16 ± 0.2 | 182 ± 29 | 3.21 ± 0.33 | 324 ± 48 |  |  |  |  |  |  |
| C[n+]1cn([C@@H]2O[C@H](COP(=O)(O)OP(=O)([O-])OP(=O)(O)OC[C@H]3O[C@@H](n4cnc5c(=O)n(Cc6cn(CCCNC(=O)c7ccc8c(c7)C(=O)OC87c8ccc(O)cc8Oc8cc(O)ccc87)nn6)c(N)nc54)[C@H](O)[C@@H]3O)[C@@H](O)[C@H]2O)c2nc(N)nc(O)c21 [Compound 6, m^7Gp3G-N1-5FAM] |  |  |  |  |  |  |  |  | 50 |  |  |  |
| C[n+]1cn([C@@H]2O[C@H](COP(=O)(O)CP(=O)(O)OP(=O)([O-])OC[C@H]3O[C@@H](n4cnc5c(=O)n(Cc6cn(CCCNC(=O)c7ccc8c(c7)C(=O)OC87c8ccc(O)cc8Oc8cc(O)ccc87)nn6)c(N)nc54)[C@H](O)[C@@H]3O)[C@@H](O)[C@H]2O)c2nc(N)nc(O)c21 [Compound 11, m^7GpCH2ppG-N1-5FAM] |  |  |  |  |  |  |  |  | 201 | 38 |  |  |
| C[n+]1cn([C@@H]2O[C@H](COP(=O)(O)NP(=O)(O)OP(=O)([O-])OC[C@H]3O[C@@H](n4cnc5c(=O)n(Cc6cn(CCCNC(=O)c7ccc8c(c7)C(=O)OC87c8ccc(O)cc8Oc8cc(O)ccc87)nn6)c(N)nc54)[C@H](O)[C@@H]3O)[C@@H](O)[C@H]2O)c2nc(N)nc(O)c21 [Compound 12, m^7GpNHppG-N1-5FAM] |  |  |  |  |  |  |  |  | 53 | 14 | 2.5 |  |
| Cn1c[n+]([C@@H]2O[C@H](COP(=O)(O)OP(=O)(O)OP(=O)(O)OC[C@H]3O[C@@H](n4cnc5c(=O)[nH]c(N)nc54)[C@H](O)[C@@H]3O)[C@@H](O)[C@H]2O)c2nc(N)[nH]c(=O)c21 [m^7Gp3G, reference compound] | 3.04 ± 0.26 | 279 ± 45 | 3.46 ± 0.3 | 294 ± 46 | 3.31 ± 0.87 | 334 ± 96 |  |  |  |  |  | 5.703 |
